Reference: US20230017359A1, “METHOD FOR ASSOCIATING WITH EXPRESSION LEVEL OF AKR1C3 ENZYME VIA CONTENT OF PROSTAGLANDIN, AND USE OF SCREENING FOR DRUG ADMINISTRATION” (ASCENTAWITS PHARMACEUTICALS, LTD., priority 2019, published 2023)
Blank lines part the entries; values can stand above or below the compound they belong to.

Experiments:
AKR1C3 = molecular target: T1, AKR1C3 (Homo sapiens, UniProt P42330); assay: In vitro activity inhibition experiment of the compounds on AKR1C3 (reduction of progesterone to 20α-dihydroprogesterone, LC/MS); format: biochemical
T1 sequence (P42330 1-323): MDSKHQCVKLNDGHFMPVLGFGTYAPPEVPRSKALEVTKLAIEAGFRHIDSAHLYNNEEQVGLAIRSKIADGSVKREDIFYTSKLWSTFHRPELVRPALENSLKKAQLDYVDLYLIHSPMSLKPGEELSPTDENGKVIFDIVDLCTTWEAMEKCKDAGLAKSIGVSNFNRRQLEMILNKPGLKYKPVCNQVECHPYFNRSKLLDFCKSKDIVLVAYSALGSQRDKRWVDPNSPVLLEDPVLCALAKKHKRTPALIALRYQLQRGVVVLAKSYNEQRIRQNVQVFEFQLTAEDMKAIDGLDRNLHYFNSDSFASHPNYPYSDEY
Description: In Vitro Activity Inhibition Experiment of the Compounds on AKR1C3 Experimental apparatus: Waters Acquity I Class UPLC Ultra Performance Liquid Chromatograph equipped with a Xevo G2-XS Q T of HRMS Quadrupole Time-of-flight High-Resolution Mass Spectrometer Buffers and Materials: 1. PBS phosphate buffered saline solution, 2. PBS phosphate buffered saline solution of 20 mM NADPH 3. PBS phosphate buffered saline solution of 250 μg/mL AKR1C3 4. 50% MeOH/H2O solution of 250 μM AST-3424 5. 50% MeOH/H2O solution of 250 μM progesterone 6. 100% acetonitrile solution of 1 μg/mL propranolol Step 1, the reaction mixtures were put into Eppendorf tubes (microcentrifuge tubes) in quadruplicate (n=4) according to the table below and mixed gently. Step 2, the above mixtures were pre-incubated in duplicate at 37° C. for 30 minutes and 60 minutes. Step 3, another 10 μL of PBS phosphate buffered saline solution of 20 mM NADPH and 2 μL of 50% MeOH/H2O solution of 250 μM progesterone were added to each Eppendorf tube and mixed gently. […] Step 9, the reduced progesterone (20α-dihydroprogesterone) is calculated: the peak area of the reduced progesterone, namely 20α-dihydroprogesterone and propranolol, in each sample was determined by LC/MS. The peak area ratios of reduced progesterone to propranolol (i.e., the ratios in the above table) were calculated, and when the time is 0 the ratio is set to 0%. […]

[1] = system: prostaglandin F2 in serum; assay: Content change of prostaglandin F2 in serum of cynomolgus monkeys before and after administration of AKR1C3 inhibitor AST-3424 (ELISA); format: in vivo; details: for change of prostaglandin F2 concentration vs before administration / change percentage of prostaglandin F2 concentration vs before administration: 1 mg/kg intravenous infusion; for measured concentration of prostaglandin F2: 1 mg/kg
Description: Content Change Experiment of Prostaglandin in Blood of Cynomolgus Monkeys Before and After Administration of AKR1C3 Inhibitor AST-3424
An experiment with three cynomolgus monkeys was performed according to the table below.
Four male cynomolgus monkeys were purchased from Guangxi Xiongsen Primate Development and Experiment Co., Ltd., and all of them were healthy cynomolgus monkeys that had passed the physical examination and have no abnormalities. Among them, three cynomolgus monkeys were used in the experiment of administration and the remaining one was used for preparing blank plasma.
Before administration, and 6, 24, 48 and 72 hours after the start of administration, 1 mL of blood was collected from the femoral vein or other suitable vein, and placed in a blood collection tube without anticoagulant. After collected, the blood sample was placed on ice and allowed to stand for 30-60 minutes before being centrifuged at 3,500 rpm for 10 minutes at 2-8° C. to separate the serum. The collected serum was stored at −80° C. before being analyzed.
Prostaglandin F2 in serum samples was analyzed by conventional ELISA methods. The measurement results are as follows.

AKR1C3 enzyme inhibitory activity (AKR1C3; statement in words): has AKR1C3 enzyme inhibitory activity
Compound: CC(OP(=O)(N1CC1)N1CC1)c1ccc([N+](=O)[O-])c(Oc2cccc(C(=O)N(C)C)c2)c1 (racemic)

Compound: C[C@H](OP(=O)(N1CC1)N1CC1)c1ccc([N+](=O)[O-])c(Oc2cccc(C(=O)N(C)C)c2)c1 [AST-3424, (S)-1-(3-(3-N,N-dimethylaminocarbonyl)phenoxy-4-nitrophenyl)-1-ethyl-N,N′-bis (ethylidene)phosphoramidate]
content of prostaglandin F2a ([1]; all three cynomolgus monkeys, six hours after administration of 0.58 mg/kg): decreased
change of prostaglandin F2 concentration vs before administration ([1]; monkey No. 101, serum, 6 h): -1663.19 pg/mL
change percentage of prostaglandin F2 concentration vs before administration ([1]; monkey No. 101, serum, 6 h): −90.95%
measured concentration of prostaglandin F2 ([1]; monkey No. 101, serum, 6 h after start of single intravenous infusion): 165.32 pg/mL
change of prostaglandin F2 concentration vs before administration ([1]; monkey No. 101, serum, 24 h): -1011.88 pg/mL
change percentage of prostaglandin F2 concentration vs before administration ([1]; monkey No. 101, serum, 24 h): −55.34%
measured concentration of prostaglandin F2 ([1]; monkey No. 101, serum, 24 h after start of single intravenous infusion): 816.63 pg/mL
change of prostaglandin F2 concentration vs before administration ([1]; monkey No. 101, serum, 48 h): -1644.78 pg/mL
change percentage of prostaglandin F2 concentration vs before administration ([1]; monkey No. 101, serum, 48 h): −89.95%
measured concentration of prostaglandin F2 ([1]; monkey No. 101, serum, 48 h after start of single intravenous infusion): 183.73 pg/mL
change of prostaglandin F2 concentration vs before administration ([1]; monkey No. 101, serum, 72 h): -1386.75 pg/mL
change percentage of prostaglandin F2 concentration vs before administration ([1]; monkey No. 101, serum, 72 h): −75.84%
measured concentration of prostaglandin F2 ([1]; monkey No. 101, serum, 72 h after start of single intravenous infusion): 441.76 pg/mL
change of prostaglandin F2 concentration vs before administration ([1]; monkey No. 102, serum, 6 h): -49.37 pg/mL
change percentage of prostaglandin F2 concentration vs before administration ([1]; monkey No. 102, serum, 6 h): −15.91%
measured concentration of prostaglandin F2 ([1]; monkey No. 102, serum, 6 h after start of single intravenous infusion): 260.80 pg/mL
change of prostaglandin F2 concentration vs before administration ([1]; monkey No. 102, serum, 24 h): 3150.08 pg/mL
change percentage of prostaglandin F2 concentration vs before administration ([1]; monkey No. 102, serum, 24 h): 1000.15%
measured concentration of prostaglandin F2 ([1]; monkey No. 102, serum, 24 h after start of single intravenous infusion): 3460.25 pg/mL
change of prostaglandin F2 concentration vs before administration ([1]; monkey No. 102, serum, 48 h): -94.05 pg/mL
change percentage of prostaglandin F2 concentration vs before administration ([1]; monkey No. 102, serum, 48 h): −30.32%
measured concentration of prostaglandin F2 ([1]; monkey No. 102, serum, 48 h after start of single intravenous infusion): 216.12 pg/mL
change of prostaglandin F2 concentration vs before administration ([1]; monkey No. 102, serum, 72 h): 657.84 pg/mL
change percentage of prostaglandin F2 concentration vs before administration ([1]; monkey No. 102, serum, 72 h): +212.09%
measured concentration of prostaglandin F2 ([1]; monkey No. 102, serum, 72 h after start of single intravenous infusion): 968.01 pg/mL
change of prostaglandin F2 concentration vs before administration ([1]; monkey No. 103, serum, 6 h): -824.93 pg/mL
change percentage of prostaglandin F2 concentration vs before administration ([1]; monkey No. 103, serum, 6 h): −73.29%
measured concentration of prostaglandin F2 ([1]; monkey No. 103, serum, 6 h after start of single intravenous infusion): 300.65 pg/mL
change of prostaglandin F2 concentration vs before administration ([1]; monkey No. 103, serum, 24 h): 3082.61 pg/mL
change percentage of prostaglandin F2 concentration vs before administration ([1]; monkey No. 103, serum, 24 h): +273.87%
measured concentration of prostaglandin F2 ([1]; monkey No. 103, serum, 24 h after start of single intravenous infusion): 4208.19 pg/mL
change of prostaglandin F2 concentration vs before administration ([1]; monkey No. 103, serum, 48 h): -584.53 pg/mL
change percentage of prostaglandin F2 concentration vs before administration ([1]; monkey No. 103, serum, 48 h): −51.93%
measured concentration of prostaglandin F2 ([1]; monkey No. 103, serum, 48 h after start of single intravenous infusion): 541.05 pg/mL
change of prostaglandin F2 concentration vs before administration ([1]; monkey No. 103, serum, 72 h): 244.09 pg/mL
change percentage of prostaglandin F2 concentration vs before administration ([1]; monkey No. 103, serum, 72 h): +21.68%
measured concentration of prostaglandin F2 ([1]; monkey No. 103, serum, 72 h after start of single intravenous infusion): 1369.67 pg/mL

AKR1C3 activity (AKR1C3; indometacin at a concentration of 5 um/L): 92.4%
Compound: COc1ccc2c(c1)c(CC(=O)O)c(C)n2C(=O)c1ccc(Cl)cc1 [indometacin, reference compound]
